Where two headings read alike, the source gives them in different places.
Tests used:
[1] = Tissue distribution of SDC-TRAPs in tumor-bearing mice (plasma, tumor, heart); details: mouse, in vivo
Experimental: Using the 10 mM stock solutions of the SDC-TRAP molecule and its Hsp90i binding moiety and effector moiety in DMSO, spiking solutions were prepared at 0.025, 0.05, 0.1, 0.5, 1, 5, 10, 50, 100, 250, and 500 μM in DMSO. 5 μL of each spiking solution was added to a 96-deep well plate.
Quality control standards were prepared from 5 μL of 0.1, 1, and 10 μM calibration standard spiking solution added in triplicate into 96-deep well plate and adding 50 μL of matrix (plasma or homogenized tumor).
To prepare test samples, test plasma was diluted as needed using blank plasma. Tumor samples were pulverized in liquid nitrogen, weighed, and homogenized in PBS at 5× volume to sample weight. 50 μL of unknown plasma or homogenized tumor sample was mixed with 5 μL of DMSO. The samples were extracted by precipitating calibration standards, QC standards, and unknown samples with 200 μL of internal standard solution. The samples were mixed by vortex at room temperature for approximately 1.5 minutes, then centrifuge at 2-8° C. 150 μL of supernatant was collected and 25 μL of water added. Samples were mixed and analyzed by LC-MS/MS.
Samples of plasma, heart and tumor were excised from a euthanized mouse, homogenized in PBS at 5 times tissue weight and diluted in 5 μL DMSO/50 μL sample. Prior to analysis, 55 μL samples and calibration standards were precipitated in 200 μL methanol in 96-well plates. Samples were mixed on a vortex mixer for 1.5 minutes at 1500 rpm at room temperature, then centrifuged at 4400 rpm for 10 minutes at 8° C. 150 μL of each supernatant was transferred to a well of a new 96-well plate, and 25 μL of water was added and mixed with the sample. […] For the analysis of samples from female SCID mice, a gradient of solvent A (water/0.1% formic acid) and B (acetonitrile/0.1% formic acid) was used as in Table A below.

[2] = Stability in mouse plasma; assay type: in vitro ADME; details: 1 h
Experimental: SDC-TRAP-0022 and SDC-TRAP-0028 were incubated in human and mouse plasma for 2 h at 37° C. and assayed for integrity at 0.25, 0.5, 1 and 2 h. The values reported below are the remaining of the parent compound at the end of the 2 h incubation period.
This solution was used to precipitate all plasma samples in the study. 200 μL was pipetted into a 96 deepwell plate over dry ice. 10 μL of 1 mM stock in DMSO was added to a 1.5 mL microfuge tube, then 990 μL of plasma. Samples were mixed by vortex, then 50 μL of each sample was added in triplicate to a 96-well plate containing internal standard solution. This was designated the 0 hour time point sample. 250 μL of the remaining plasma sample was added to each of four 96 deepwell plates—one per time point. Samples were incubated at 37° C. with gentle shaking for 0.25, 0.5, and 1 hour. After each time point, one plate of each sample was removed from the shaker and placed on wet ice for approximately 2 minutes. 50 μL plasma aliquots (in triplicate) were added to the deepwell plate containing internal standard solution. After the last time point was extracted, the 96 deepwell plate was vortexed, then centrifuged at 2-8° C. 150 μL of supernatant was collected and 25 μL of water was added. Samples were mixed and analyzed by LC-MS/MS.
The stability of seven SDC-TRAP types in mouse plasma was measured as follows. 990 μL mouse plasma aliquots from a common stock were spiked with 10 μL of 1 mM stock of one of seven SDC-TRAP samples identified in the table below. Each sample was mixed and divided into 250 μL aliquots, each representing time points 0, 15 minutes, 30 minutes or 1 hour. At the prescribed time point, 3×50 μL samples were each mixed with 200 μL of methanol containing internal standard and held on dry ice until all time point samples were extracted. The samples collectively were vortex mixed for 1.5 minutes at 1500 rpm, then centrifuged at 4400 rpm for 10 minutes at 8° C.

H 3211 NSLC cells = experiment: IC50 of continuous and pulsed exposure to SDC-TRAPs; assay type: cell-based
[3] = 1 h, read-out: IC50, 1 h-pulse/71 h-compound free, H 3211 NSLC cells, 7.5 × 10^3 cells/well, 1st of 2 columns
[4] = 1 h, read-out: IC50, 1 h-pulse/71 h-compound free, H 3211 NSLC cells, 7.5 × 10^3 cells/well, 2nd of 2 columns
[5] = 72 h, read-out: IC50, 72 h-continuous, H 3211 NSLC cells, 7.5 × 10^3 cells/well, 1st of 3 columns
[6] = 72 h, read-out: IC50, 72 h-continuous, H 3211 NSLC cells, 7.5 × 10^3 cells/well, 2nd of 3 columns
[7] = 72 h, read-out: IC50, 72 h-continuous, H 3211 NSLC cells, 7.5 × 10^3 cells/well, 3rd of 3 columns

**Q.** With CC(C)c1cc(-c2nnc(O)n2-c2ccc(CC3CCN(CC(=O)Nc4cccc5c4CN(C4CCC(=O)NC4=O)C5=O)CC3)cc2)c(O)cc1O (stereo not drawn) [SDC-TRAP-0116, 2-(4-(4-(3-(2,4-dihydroxy-5-isopropylphenyl)-5-hydroxy-4H-1,2,4-triazol-4-yl)benzyl)piperidin-1-yl)-N-(2-(2,6-dioxopiperidin-3-yl)-1-oxoisoindolin-4-yl) acetamide] as the molecule, how does the Kp at 48 h [1] read?
**A.** 4.65

**Q.** And the “% Remaining” value ([2]; mouse, plasma, 10 μM)?
**A.** 91.1%

**Q.** What does the source list for CC(C)c1cc(-c2nnc(O)n2-c2ccc3c(ccn3CCN(C)C(=O)NCC(=O)Nc3cccc4c3CN(C3CCC(=O)NC3=O)C4=O)c2)c(O)cc1O (stereo not drawn) [SDC-TRAP-0021, 2-(3-(2-(5-(3-(2,4-dihydroxy-5-isopropylphenyl)-5-hydroxy-4H-1,2,4-triazol-4-yl)-1H-indol-1-yl)ethyl)-3-methylureido)-N-(2-(2,6-dioxopiperidin-3-yl)-1-oxoisoindolin-4-yl)acetamide]?
**A.** IC50 (H 3211 NSLC cells; [3]): > 3000 nM; IC50 (H 3211 NSLC cells; [4]): > 3000 nM; IC50 (H 3211 NSLC cells; [5]): 431 nM; IC50 (H 3211 NSLC cells; [6]): 817 nM; IC50 (H 3211 NSLC cells; [7]): 902 nM

**Q.** For CNCCn1ccc2cc(-n3c(O)nnc3-c3cc(C(C)C)c(O)cc3O)ccc21 [SDC-TRAP-0004], which IC50 (H 3211 NSLC cells; read-out: IC50, 1 h-pulse/71 h-compound free, H 3211 NSLC cells, 7.5 × 10^3 cells/well, 1st of 2 columns) is on record?
**A.** 624 nM

**Q.** And the IC50 (H 3211 NSLC cells; read-out: IC50, 1 h-pulse/71 h-compound free, H 3211 NSLC cells, 7.5 × 10^3 cells/well, 2nd of 2 columns)?
**A.** 1750 nM

**Q.** What about the IC50 (H 3211 NSLC cells; read-out: IC50, 72 h-continuous, H 3211 NSLC cells, 7.5 × 10^3 cells/well, 1st of 3 columns) of the same molecule?
**A.** 22 nM

**Q.** And the IC50 (H 3211 NSLC cells; read-out: IC50, 72 h-continuous, H 3211 NSLC cells, 7.5 × 10^3 cells/well, 2nd of 3 columns)?
**A.** 60 nM

**Q.** And the IC50 (H 3211 NSLC cells; read-out: IC50, 72 h-continuous, H 3211 NSLC cells, 7.5 × 10^3 cells/well, 3rd of 3 columns)?
**A.** 40 nM

**Q.** With CC(C)c1cc(-c2nnc(O)n2-c2ccc3c(ccn3CCOCCNC(=O)CCCC(=O)Nc3cccc4c3CN(C3CCC(=O)NC3=O)C4=O)c2)c(O)cc1O (stereo not drawn) [SDC-TRAP-0015, N1-(2-(2-(5-(3-(2,4-dihydroxy-5-isopropylphenyl)-5-hydroxy-4H-1,2,4-triazol-4-yl)-1H-indol-1-yl)ethoxy)ethyl)-N5-(2-(2,6-dioxopiperidin-3-yl)-1-oxoisoindolin-4-yl)glutaramide] as the molecule, how does the IC50 (H 3211 NSLC cells; [3]) read?
**A.** > 3000 nM

**Q.** What about the IC50 (H 3211 NSLC cells; [4]) of the same molecule?
**A.** > 3000 nM

**Q.** And the IC50 (H 3211 NSLC cells; [6])?
**A.** 2230 nM

**Q.** For CC(C)c1cc(-c2nnc(O)n2-c2ccc3c(ccn3CCN(C)C(=O)c3ccc(CCc4c[nH]c5nc(N)[nH]c(=O)c45)cc3)c2)c(O)cc1O [SDC-TRAP-0019, 4-(2-(2-amino-4-oxo-4,7-dihydro-3H-pyrrolo[2,3-d]pyrimidin-5-yl)ethyl)-N-(2-(5-(3-(2,4-dihydroxy-5-isopropylphenyl)-5-hydroxy-4H-1,2,4-triazol-4-yl)-1H-indol-1-yl)ethyl)-N-methylbenzamide], which IC50 (H 3211 NSLC cells; [3]) is on record?
**A.** > 3000 nM

**Q.** And the IC50 (H 3211 NSLC cells; [4])?
**A.** > 3000 nM

**Q.** What about the IC50 (H 3211 NSLC cells; [5]) of the same molecule?
**A.** 209 nM

**Q.** And the IC50 (H 3211 NSLC cells; [6])?
**A.** 713 nM

**Q.** And the IC50 (H 3211 NSLC cells; [7])?
**A.** 258 nM

**Q.** For CC(C)c1cc(-c2nnc(O)n2-c2ccc3c(ccn3CCN(C)C(=O)CCCC(=O)Nc3cccc4c3CN(C3CCC(=O)NC3=O)C4=O)c2)c(O)cc1O (stereo not drawn) [SDC-TRAP-0018, N1-(2-(5-(3-(2,4-dihydroxy-5-isopropylphenyl)-5-hydroxy-4H-1,2,4-triazol-4-yl)-1H-indol-1-yl)ethyl)-N5-(2-(2,6-dioxopiperidin-3-yl)-1-oxoisoindolin-4-yl)-N1-methylglutaramide], which IC50 (H 3211 NSLC cells; [3]) is on record?
**A.** > 3000 nM

**Q.** And the IC50 (H 3211 NSLC cells; [4])?
**A.** > 3000 nM

**Q.** What about the IC50 (H 3211 NSLC cells; [5]) of the same molecule?
**A.** 287 nM

**Q.** What about the IC50 (H 3211 NSLC cells; [6]) of the same molecule?
**A.** 839 nM

**Q.** And the IC50 (H 3211 NSLC cells; [7])?
**A.** 735 nM

**Q.** With CC(C)c1cc(-c2nnc(O)n2-c2ccc3c(ccn3CCOCCNC(=O)c3ccc(CCc4c[nH]c5nc(N)[nH]c(=O)c45)cc3)c2)c(O)cc1O [SDC-TRAP-0020, 4-(2-(2-amino-4-oxo-4,7-dihydro-3H-pyrrolo[2,3-d]pyrimidin-5-yl)ethyl)-N-(2-(2-(5-(3-(2,4-dihydroxy-5-isopropylphenyl)-5-hydroxy-4H-1,2,4-triazol-4-yl)-1H-indol-1-yl)ethoxy)ethyl)benzamide] as the molecule, how does the IC50 (H 3211 NSLC cells; [3]) read?
**A.** > 3000 nM

**Q.** What about the IC50 (H 3211 NSLC cells; [4]) of the same molecule?
**A.** > 3000 nM

**Q.** And the IC50 (H 3211 NSLC cells; [5])?
**A.** 587 nM

**Q.** What about the IC50 (H 3211 NSLC cells; [6]) of the same molecule?
**A.** 2620 nM

**Q.** And the IC50 (H 3211 NSLC cells; [7])?
**A.** 2010 nM

**Q.** Which IC50 (H 3211 NSLC cells; [3]) does the source give for CCc1c2c(nc3ccc(OCC(=O)N(C)CCOCCn4ccc5cc(-n6c(O)nnc6-c6cc(C(C)C)c(O)cc6O)ccc54)cc13)-c1cc3c(c(=O)n1C2)COC(=O)C3(O)CC (stereo not drawn) [SDC-TRAP-0028, 2-((4,11-diethyl-4-hydroxy-3,14-dioxo-3,4,12,14-tetrahydro-1H-pyrano[3′,4′:6,7]indolizino[1,2-b]quinolin-9-yl)oxy)-N-(2-(2-(5-(3-(2,4-dihydroxy-5-isopropylphenyl)-5-hydroxy-4H-1,2,4-triazol-4-yl)-1H-indol-1-yl)ethoxy)ethyl)-N-methylacetamide] here?
**A.** > 3000 nM

**Q.** What about the IC50 (H 3211 NSLC cells; [4]) of the same molecule?
**A.** > 3000 nM

**Q.** And the IC50 (H 3211 NSLC cells; [5])?
**A.** 468 nM

**Q.** What about the IC50 (H 3211 NSLC cells; [6]) of the same molecule?
**A.** 1760 nM

**Q.** What about the IC50 (H 3211 NSLC cells; [7]) of the same molecule?
**A.** 499 nM

**Q.** And the “% Remaining” value ([2]; mouse, plasma, 10 μM)?
**A.** 41%

**Q.** For CCc1c2c(nc3ccc(OCC(=O)NCCn4ccc5cc(-n6c(O)nnc6-c6cc(C(C)C)c(O)cc6O)ccc54)cc13)-c1cc3c(c(=O)n1C2)COC(=O)C3(O)CC (stereo not drawn) [SDC-TRAP-0023, 2-((4,11-diethyl-4-hydroxy-3,14-dioxo-3,4,12,14-tetrahydro-1H-pyrano[3′,4′: 6,7]indolizino[1,2-b]quinolin-9-yl)oxy)-N-(2-(5-(3-(2,4-dihydroxy-5-isopropylphenyl)-5-hydroxy-4H-1,2,4-triazol-4-yl)-1H-indol-1-yl)ethyl)acetamide], which IC50 (H 3211 NSLC cells; [3]) is on record?
**A.** > 3000 nM

**Q.** And the IC50 (H 3211 NSLC cells; [4])?
**A.** > 3000 nM

**Q.** And the IC50 (H 3211 NSLC cells; [5])?
**A.** 59 nM

**Q.** And the IC50 (H 3211 NSLC cells; [6])?
**A.** 239 nM

**Q.** And the IC50 (H 3211 NSLC cells; [7])?
**A.** 113 nM

**Q.** For CCc1c2c(nc3ccc(O)cc13)-c1cc3c(c(=O)n1C2)COC(=O)[C@]3(O)CC [SN-38], which “Plasma Conc.” value ([1]; 1 h) is on record?
**A.** 4.34 µM

**Q.** What about the “Tumor/Plasma Ratio” value ([1]; 1 h) of the same molecule?
**A.** 0.11

**Q.** What about the concentration at 1 h ([1]; Plasma Conc.) of the same molecule?
**A.** 8.6 µM

**Q.** What about the Kp at 1 h ([1]; Tumor/Plasma Ratio) of the same molecule?
**A.** 0.07

**Q.** For CCc1c2c(nc3ccc(OCC(=O)N(C)CCn4ccc5cc(-n6c(O)nnc6-c6cc(C(C)C)c(O)cc6O)ccc54)cc13)-c1cc3c(c(=O)n1C2)COC(=O)C3(O)CC (stereo not drawn) [SDC-TRAP-0027, 2-((4,11-diethyl-4-hydroxy-3,14-dioxo-3,4,12,14-tetrahydro-1H-pyrano[3′,4′:6,7]indolizino[1,2-b]quinolin-9-yl)oxy)-N-(2-(5-(3-(2,4-dihydroxy-5-isopropylphenyl)-5-hydroxy-4H-1,2,4-triazol-4-yl)-1H-indol-1-yl)ethyl)-N-methylacetamide], which IC50 (H 3211 NSLC cells; [3]) is on record?
**A.** > 3000 nM

**Q.** What about the IC50 (H 3211 NSLC cells; [4]) of the same molecule?
**A.** > 3000 nM

**Q.** What about the IC50 (H 3211 NSLC cells; [6]) of the same molecule?
**A.** 1740 nM

**Q.** And the IC50 (H 3211 NSLC cells; [7])?
**A.** 1340 nM

**Q.** For CCc1c2c(nc3ccc(O)cc13)-c1cc3c(c(=O)n1C2)COC(=O)C3(CC)OC(=O)CCCNC(=O)c1cc2cc(-n3c(O)nnc3-c3cc(C(C)C)c(O)cc3O)ccc2n1C (stereo not drawn) [SDC-TRAP-0024, 4,11-diethyl-9-hydroxy-3,14-dioxo-3,4,12,14-tetrahydro-1H-pyrano[3′,4′:6,7]indolizino[1,2-b]quinolin-4-yl 4-(5-(3-(2,4-dihydroxy-5-isopropylphenyl)-5-hydroxy-4H-1,2,4-triazol-4-yl)-1-methyl-1H-indole-2-carboxamido)butanoate], which IC50 (H 3211 NSLC cells; [5]) is on record?
**A.** 76 nM

**Q.** Which “% Remaining” value ([2]; mouse, plasma, 10 μM) does the source give for CCNC(=O)c1nnc(-c2cc(C(C)C)c(O)cc2O)n1-c1ccc(CN2CCC(C(=O)N3CCN(c4cc(C)c(OC(=O)Nc5cccc6c5CN(C5CCC(=O)NC5=O)C6=O)c(C)c4)CC3)CC2)cc1 (stereo not drawn) [SDC-TRAP-0195, 4-(4-(1-(4-(3-(2,4-dihydroxy-5-isopropylphenyl)-5-(ethylcarbamoyl)-4H-1,2,4-triazol-4-yl)benzyl)piperidine-4-carbonyl)piperazin-1-yl)-2,6-dimethylphenyl (2-(2,6-dioxopiperidin-3-yl)-1-oxoisoindolin-4-yl)carbamate] here?
**A.** 98.4%

**Q.** With CCc1c2c(nc3ccc(O)cc13)-c1cc3c(c(=O)n1C2)COC(=O)[C@@]3(CC)OC(=O)N1CCC(CCn2ccc3cc(-n4c(O)nnc4-c4cc(C(C)C)c(O)cc4O)ccc32)CC1 [SDC-TRAP-0064, (S)-4,11-diethyl-9-hydroxy-3,14-dioxo-3,4,12,14-tetrahydro-1H-pyrano[3′,4′:6,7]indolizino[1,2-b]quinolin-4-yl 4-(2-(5-(3-(2,4-dihydroxy-5-isopropylphenyl)-5-hydroxy-4H-1,2,4-triazol-4-yl)-1H-indol-1-yl)ethyl)piperidine-1-carboxylate] as the molecule, how does the “% Remaining” value ([2]; mouse plasma, 37° C.) read?
**A.** 91.5%

**Q.** Which “% Remaining” value ([2]; mouse, plasma, 10 μM) does the source give for CCNC(=O)c1nnc(-c2cc(C(C)C)c(O)cc2O)n1-c1ccc2c(c1)CN(Cc1cc(OC)c(OC(=O)Nc3cccc4c3CN(C3CCC(=O)NC3=O)C4=O)c(OC)c1)C2 (stereo not drawn) [SDC-TRAP-0196] here?
**A.** 66.2%

**Q.** With CCc1c2c(nc3ccc(O)cc13)-c1cc3c(c(=O)n1C2)COC(=O)C3(CC)OC(=O)CCC(=O)N1CCC(Cc2ccc(-n3c(O)nnc3-c3cc(C(C)C)c(O)cc3O)cc2)CC1 (stereo not drawn) [SDC-TRAP-0042, 4,11-diethyl-9-hydroxy-3,14-dioxo-3,4,12,14-tetrahydro-1H-pyrano[3′,4′:6,7]indolizino[1,2-b]quinolin-4-yl 4-(4-(4-(3-(2,4-dihydroxy-5-isopropylphenyl)-5-hydroxy-4H-1,2,4-triazol-4-yl)benzyl)piperidin-1-yl)-4-oxobutanoate] as the molecule, how does the “% Remaining” value ([2]; mouse plasma, 37° C.) read?
**A.** 74%

From patent US10675360B2 (MADRIGAL PHARMACEUTICALS, INC., priority 2014, dated 2020)
